The nature of one series: Heart rate assay. The format is in vivo. The conditions noted are these: IV dosing, 3 mg/kg, 1 hour post dosing, vehicle 2% cyclodextrin, conscious mice, FIG. 11. Here is the method: Mice were dosed with compound VIII, FTY720 (intravenous, 3 mg/kg) or vehicle (2% hydroxypropyl beta-cyclodextrin) and heart rate measured at 1 hour post dosing. Heart rate was captured in unrestrained, conscious animals using the ECGenie™ system. The results are illustrated in FIG. 11.

A further series concerns the target T1, S1P3 receptor (Homo sapiens, UniProt Q99500).
T1 construct: expressed in transfected cells; host or cells: HEK293T cells (crude microsomes)
Description: GTPγS-35 binding assay (broken cell), S1P3. Format: biochemical. Here is the method: (§1) This assay illustrates agonist activation of G protein coupled receptors (GPCRs) in isolation. The assay forces expression concomitantly of a recombinant GPCR (e.g., the S1P1-5 receptor) and each of the three subunits (typically, α-2, β-1, or γ-2) of a heterotrimeric G protein in a HEK293T cell by transfecting the cell with four plasmid DNAs encoding the respective proteins. About 60 hours after transfection the cells are harvested, opened, and the nucleus discarded. The crude microsome is prepared from the remainder. Agonist (e.g., S1P) stimulation of the receptor-G protein complex on the microsomes results in the exchange of GTP for GDP on the α-subunit in a dose-dependent manner. The GTP-bound a-subunit is detected using a GTP analog (GTPγS-35), which is a radionuclide (sulfur-35) labeled phosphothioate that is not hydrolyzed to GDP. The microsomes with the adherent G proteins are collected by filtration and the bound GTPγS-35 quantified in a liquid scintillation counter. The assay yields relative potency (EC50 values) and maximum effect (efficacy, Emaxa Antagonist activity is detected as rightward shifts in the agonist dose-response curve in the presence of a fixed amount of antagonist. If the antagonist behaves competitively, the affinity of the receptor/antagonist pair (K1) can be determined. […]

The next series concerns the target T2, human S1P1 receptor (Homo sapiens, UniProt P21453).
T2 construct: expressed in transfected cells; host or cells: HEK293T cells (crude microsomes)
Description: GTPγS-35 binding assay (broken cell), S1P1. The conditions noted are these: FIG. 7, compared with S1P. Format: biochemical. Here is the method:
as §1

T1 sequence (Q99500 whole entry): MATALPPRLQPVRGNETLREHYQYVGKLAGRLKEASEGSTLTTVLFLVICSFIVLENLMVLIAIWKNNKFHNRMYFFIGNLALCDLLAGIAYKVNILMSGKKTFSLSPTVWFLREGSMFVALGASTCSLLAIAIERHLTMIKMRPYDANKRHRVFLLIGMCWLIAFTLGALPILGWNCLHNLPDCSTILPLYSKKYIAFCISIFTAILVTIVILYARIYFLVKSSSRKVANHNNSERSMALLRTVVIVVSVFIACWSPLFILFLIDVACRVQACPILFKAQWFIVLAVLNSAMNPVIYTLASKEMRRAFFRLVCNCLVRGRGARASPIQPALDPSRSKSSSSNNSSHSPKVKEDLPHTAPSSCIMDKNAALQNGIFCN
T1 sequence (P04899 whole entry partner): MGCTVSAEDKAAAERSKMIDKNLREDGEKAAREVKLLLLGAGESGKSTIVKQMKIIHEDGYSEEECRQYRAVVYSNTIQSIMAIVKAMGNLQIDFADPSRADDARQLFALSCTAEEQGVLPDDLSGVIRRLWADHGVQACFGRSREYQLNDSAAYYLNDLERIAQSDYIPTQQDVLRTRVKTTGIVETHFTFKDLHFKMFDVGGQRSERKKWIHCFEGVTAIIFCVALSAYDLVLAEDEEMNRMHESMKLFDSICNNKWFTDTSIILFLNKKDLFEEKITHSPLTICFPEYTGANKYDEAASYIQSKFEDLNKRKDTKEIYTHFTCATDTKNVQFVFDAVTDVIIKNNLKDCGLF
T1 sequence (P62873 whole entry partner): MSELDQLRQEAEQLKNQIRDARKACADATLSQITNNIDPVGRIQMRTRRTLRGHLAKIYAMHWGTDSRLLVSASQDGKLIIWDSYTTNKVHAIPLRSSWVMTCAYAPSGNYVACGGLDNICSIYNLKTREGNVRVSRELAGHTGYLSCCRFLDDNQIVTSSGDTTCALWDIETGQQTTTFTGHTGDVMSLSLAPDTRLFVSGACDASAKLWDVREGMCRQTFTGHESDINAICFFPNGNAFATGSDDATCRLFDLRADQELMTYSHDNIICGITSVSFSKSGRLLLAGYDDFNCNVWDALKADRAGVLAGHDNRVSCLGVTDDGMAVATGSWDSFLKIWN
T1 sequence (P59768 2-68 partner limits assumed): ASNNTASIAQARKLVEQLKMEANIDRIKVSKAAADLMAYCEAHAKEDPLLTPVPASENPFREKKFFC
T2 sequence (P21453 whole entry): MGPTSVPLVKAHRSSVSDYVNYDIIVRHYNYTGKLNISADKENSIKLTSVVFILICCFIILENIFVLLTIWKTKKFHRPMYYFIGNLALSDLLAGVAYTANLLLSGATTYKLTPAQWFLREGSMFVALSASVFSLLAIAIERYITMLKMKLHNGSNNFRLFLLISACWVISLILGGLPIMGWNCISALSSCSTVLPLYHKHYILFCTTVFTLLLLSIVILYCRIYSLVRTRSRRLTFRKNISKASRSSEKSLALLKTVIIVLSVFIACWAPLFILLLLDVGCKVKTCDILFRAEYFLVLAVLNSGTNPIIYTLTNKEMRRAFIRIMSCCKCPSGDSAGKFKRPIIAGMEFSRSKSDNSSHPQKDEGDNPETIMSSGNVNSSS
T2 sequence (P04899 whole entry partner): as the sequence (P04899 whole entry partner) above
T2 sequence (P62873 whole entry partner): as the sequence (P62873 whole entry partner) above
T2 sequence (P59768 2-68 partner limits assumed): as the sequence (P59768 2-68 partner limits assumed) above

In the case of `CCCCCCCCc1ccc2c(c1)CCC(C(N)(CO)CO)C2` (stereo not shown) [VIII, 2-Amino-2-(6-octyl-1,2,3,4-tetrahydro-naphthalen-2-yl)-propane-1,3-diol], the “effect on the heart rate of mice” value in the series “Heart rate assay” is on record as “no effect”.

Take `CCCCCCCCc1ccc2c(c1)CCC(C(N)(COP(=O)(O)O)COP(=O)(O)O)C2` (stereo not shown) [XXVII, Phosphoric acid mono-[2-amino-2-(6-octyl-1,2,3,4-tetrahydro-naphthalen-2-yl)-3-phosphonooxypropyl] ester]: the “agonist activity at the S1P3 receptor” value at S1P3 receptor (FIG. 8, XXVI and XXVII tested as mixture of phosphorylated forms of compound VIII) was “low potency, partial agonists”. Besides, the “potency at S1P3 relative to S1P” value at S1P3 receptor (compared with S1P) is reported as “less potent”. At human S1P1 receptor, the “potency at S1P1 relative to S1P” value is recorded as “more potent”.
